This note sets out measurements from PMC5314759 (2016).

In experiment [1] the test system is poly[d(A-T)2] (DNA, polymer) AT. As to the kind of experiment: UV thermal melting. The note with it: compound concentration not given here; no significant stabilization.
For experiment [2], the system named is poly[d(G-C)2] (DNA, polymer) GC. Nature of the experiment: UV thermal melting. As to conditions: compound concentration not given here; no significant stabilization.
The test system of experiment [3] is poly[d(A-T)2] (DNA, polymer) AT. As to the kind of experiment: ethidium bromide fluorescence displacement. As to conditions: apparent; ethidium bromide displaced; Kapp = Kb × 12.6/C50; over 5 h.
Experiment [4] deals with poly[d(G-C)2] (DNA, polymer) GC. As to the kind of experiment: ethidium bromide fluorescence displacement. The note with it: apparent; ethidium bromide displaced; Kapp = Kb × 12.6/C50; over 5 h.

In the case of `COC1=CC=C2[C@H]3Cc4ccc(OCc5c(C)c(COc6ccc7c8c6O[C@H]6C(OC)=CC=C9[C@@H](C7)N(C)CC[C@]986)c(C)c(COc6ccc7c8c6O[C@H]6C(OC)=CC=C9[C@@H](C7)N(C)CC[C@]986)c5C)c5c4[C@@]2(CCN3C)[C@H]1O5`, the ΔTM in experiment [1] was −0.17 ± 0.25 °C; in experiment [2], 0.36 ± 0.17 °C. Moreover, the Kapp is given as 3.63 × 10^6 M(bp)^-1 in experiment [3] and 3.5 × 10^7 M(bp)^-1 in experiment [4].

For `CO[C@H]1C=C[C@H]2[C@H]3Cc4ccc(OCc5c(C)c(COc6ccc7c8c6O[C@H]6[C@@H](OC)C=C[C@H]9[C@@H](C7)N(C)CC[C@@]896)c(C)c(COc6ccc7c8c6O[C@H]6[C@@H](OC)C=C[C@H]9[C@@H](C7)N(C)CC[C@@]896)c5C)c5c4[C@@]2(CCN3C)[C@H]1O5`, the ΔTM in experiment [1] was determined as 0.73 ± 0.18 °C; in experiment [2], 1.72 ± 0.61 °C. Also, the Kapp in experiment [3] is recorded as 9.1 × 10^6 M(bp)^-1; in experiment [4], 1.15 × 10^7 M(bp)^-1.

Regarding `Cc1c(COc2ccc3c4c2O[C@H]2[C@@H](O)C=C[C@H]5[C@@H](C3)N(C)CC[C@@]452)c(C)c(COc2ccc3c4c2O[C@H]2[C@@H](O)C=C[C@H]5[C@@H](C3)N(C)CC[C@@]452)c(C)c1COc1ccc2c3c1O[C@H]1[C@@H](O)C=C[C@H]4[C@@H](C2)N(C)CC[C@@]341`, the ΔTM is 0.38 ± 0.71 °C in experiment [1] and 2.63 ± 0.58 °C in experiment [2]. Further, the Kapp in experiment [3] is recorded as 3.03 × 10^5 M(bp)^-1; in experiment [4], 2.69 × 10^5 M(bp)^-1.
